In patent US5654274A, “Biologically active peptides having N-terminal substitutions” (priority 1995, dated 1997):
Square brackets hold non-standard residues; d marks the D form. Ends that are not written are not given here. Peptide text beside a SMILES is read from it. * marks the point of attachment. hArg = N=C(N)NCCCC[C@H](N)C(=O)O; Octanoyl = CCCCCCCC(=O)*

system: P. gingivalis; experiment: Anaerobic antimicrobial susceptibility test (NCCLS M11-T2), P. gingivalis; type: cell-based; details: strain W50, BHI broth, 24-48 hours

Compound	MIC P. gingivalis (strain) W50
CC[C@H](C)[C@H](NC(=O)[C@H](CCCCNC(=N)N)NC(=O)CNC(=O)[C@H](C)NC(=O)[C@@H](NC(=O)[C@H](CCCCNC(=N)N)NC(=O)[C@H](C)NC(=O)[C@@H](NC(=O)[C@H](CCCCNC(=N)N)NC(=O)CNC(=O)[C@H](C)NC(=O)[C@@H](NC(=O)[C@H](CCCCNC(=N)N)NC(=O)[C@H](C)NC(=O)[C@@H](NC(=O)[C@H](CCCCNC(=N)N)NC(=O)CNC(=O)[C@H](C)NC(=O)[C@@H](NC(=O)[C@@H](N)CCCCNC(=N)N)[C@@H](C)CC)[C@@H](C)CC)[C@@H](C)CC)[C@@H](C)CC)[C@@H](C)CC)C(=O)N[C@@H](C)C(N)=O [(SEQ ID NO: 66)-NH2] (H-[hArg]IAG[hArg]IA[hArg]IAG[hArg]IA[hArg]IAG[hArg]IA-NH2)	4 μl/ml
CCCCCCCC(=O)N[C@@H](CCCCN)C(=O)N[C@H](C(=O)N[C@@H](C)C(=O)NCC(=O)N[C@@H](CCCCN)C(=O)N[C@H](C(=O)N[C@@H](C)C(=O)N[C@@H](CCCCN)C(=O)N[C@H](C(=O)N[C@@H](C)C(=O)NCC(=O)N[C@@H](CCCCN)C(=O)N[C@H](C(=O)N[C@@H](C)C(=O)N[C@@H](CCCCN)C(=O)N[C@H](C(=O)N[C@@H](C)C(=O)NCC(=O)N[C@@H](CCCCN)C(=O)N[C@H](C(=O)N[C@@H](C)C(N)=O)[C@@H](C)CC)[C@@H](C)CC)[C@@H](C)CC)[C@@H](C)CC)[C@@H](C)CC)[C@@H](C)CC [Oct-(SEQ ID NO: 27)-NH2] (Octanoyl-KIAGKIAKIAGKIAKIAGKIA-NH2)	16 μl/ml
CCCCCCCC(=O)N[C@@H](CCCCN)C(=O)N[C@H](C(=O)N[C@@H](C)C(=O)NCC(=O)N[C@@H](CCCCN)C(=O)N[C@H](C(=O)N[C@@H](C)C(=O)N[C@@H](CCCCN)C(=O)N[C@H](C(=O)N[C@@H](C)C(=O)NCC(=O)N[C@@H](CCCCN)C(=O)N[C@H](C(=O)N[C@@H](C)C(=O)N[C@@H](CCCCN)C(=O)N[C@H](C(=O)N[C@@H](C)C(=O)NCC(=O)N[C@@H](CCCCN)C(=O)N[C@H](C(=O)N[C@@H](C)C(=O)O)[C@@H](C)CC)[C@@H](C)CC)[C@@H](C)CC)[C@@H](C)CC)[C@@H](C)CC)[C@@H](C)CC [Oct-(SEQ ID NO: 27)-OH] (Octanoyl-KIAGKIAKIAGKIAKIAGKIA-OH)	1 μl/ml
CCCCCCCC(=O)N[C@@H](CCCCNC(=N)N)C(=O)N[C@H](C(=O)N[C@@H](C)C(=O)NCC(=O)N[C@@H](CCCCNC(=N)N)C(=O)N[C@H](C(=O)N[C@@H](C)C(=O)N[C@@H](CCCCNC(=N)N)C(=O)N[C@H](C(=O)N[C@@H](C)C(=O)NCC(=O)N[C@@H](CCCCNC(=N)N)C(=O)N[C@H](C(=O)N[C@@H](C)C(=O)N[C@@H](CCCCNC(=N)N)C(=O)N[C@H](C(=O)N[C@@H](C)C(=O)NCC(=O)N[C@@H](CCCCNC(=N)N)C(=O)N[C@H](C(=O)N[C@@H](C)C(N)=O)[C@@H](C)CC)[C@@H](C)CC)[C@@H](C)CC)[C@@H](C)CC)[C@@H](C)CC)[C@@H](C)CC [Oct-(SEQ ID NO: 66)-NH2] (Octanoyl-[hArg]IAG[hArg]IA[hArg]IAG[hArg]IA[hArg]IAG[hArg]IA-NH2)	2 μl/ml
CCCCCCCC(=O)N[C@@H](CCCCN)C(=O)N[C@H](C(=O)N[C@@H](C)C(=O)N[C@@H](CCCCN)C(=O)N[C@@H](CCCCN)C(=O)N[C@H](C(=O)N[C@@H](C)C(=O)N[C@@H](CCCCN)C(=O)N[C@H](C(=O)N[C@@H](C)C(=O)N[C@@H](CCCCN)C(=O)N[C@@H](CCCCN)C(=O)N[C@H](C(=O)N[C@@H](C)C(=O)N[C@@H](CCCCN)C(=O)N[C@H](C(=O)N[C@@H](C)C(=O)N[C@@H](CCCCN)C(=O)N[C@@H](CCCCN)C(=O)N[C@H](C(=O)N[C@@H](C)C(=O)O)[C@@H](C)CC)[C@@H](C)CC)[C@@H](C)CC)[C@@H](C)CC)[C@@H](C)CC)[C@@H](C)CC [Oct-(SEQ ID NO: 86)-OH] (Octanoyl-KIAKKIAKIAKKIAKIAKKIA-OH)	1 μl/ml
KIAGKIAKIAGKIAKIAGKIA-NH2 [(SEQ ID NO: 27)-NH2]	4 μl/ml

biological target: not listed separately; experiment: Inhibition of lipopolysaccharide binding to dye (LPS50); design: species or system E. coli; details: concentration of peptide necessary to inhibit the binding of 50% of the lipopolysaccharide to the dye; absorbance at 460 nm and 510 nm
Experimental: A stock solution (10×) of 0.6 mM dye is prepared by adding 1.68 mg of (1-ethyl-2-(3-[1-ethylnaphthol(1,2-d)- thiazolin-2-ylidene]-2-methylpropenyl)naphtho-(1,2-d)-thiazolium bromide (Signa E-7762) to 5 ml of 200 proof ethanol. 1 ml of this solution was added to 9 ml ethanol to give 0.06 mM of dye (60 μM dye).
A stock solution of lipopolysaccharide (LPS) from E. coli serotype 0111:B4 was prepared at 1.5 mg/ml. 400 μl of this solution was mixed with 4.6 ml pyrogen free water to give a 120 μg/ml solution.
Row 1 and rows 3 through 12 of a microtiter plate were filled with 100 μl of pyrogen free water or with 10 mg/ml of bovine serum albumin. 200 μl of peptide then is added to row 2 of the microtiter plate at a concentration of […]. 200 μl of pyrogen free water is added to each of the control wells in two lanes (having dye and LPS but no peptide or having dye and no LPS and no peptide). 100 μl then is serially diluted from row 2 through row 12 of the microtiter plate. 50 μl of PBS (pH 7.4) and 50 μl of the LPS solution then are added to row 1 of the plate (blank wells).
Equal volumes of the LPS solution, the dye, and PBS (pH 7.4, approx. 150 mM) are mixed to form a dye-buffer--LPS mixture having LPS at a final concentration of 40 μg/mi and dye at a final concentration of 20 μM. The dye-buffer LPS mixture then is incubated for 10 minutes at room temperature in the dark.
The plate is incubated for 10 minutes at room temperature in the dark, and the absorbance at 460 nm and 510 nm is read. From these absorbances, the LPS50 value, which is the concentration in mg/ml of peptide necessary to inhibit the binding of 50% of the lipopolysaccharide to the dye, is calculated.

Compound	LPS50
CCCCCCCC(=O)N[C@@H](CC(C)C)C(=O)N[C@@H](CCCCN)C(=O)N[C@@H](CCCCN)C(=O)N[C@@H](CC(C)C)C(=O)N[C@@H](CCCCN)C(=O)N[C@@H](CCCCN)C(=O)N[C@@H](CC(C)C)C(N)=O [Oct-(SEQ ID NO: 106)-NH2] (Octanoyl-LKKLKKL-NH2)	6.80 µg/mL
CCCCCCCC(=O)N[C@@H](CC(C)C)C(=O)N[C@@H](CC(C)C)C(=O)N[C@@H](CCCCN)C(=O)N[C@@H](CCCCN)C(=O)N[C@@H](CC(C)C)C(=O)N[C@@H](CCCCN)C(=O)N[C@@H](CCCCN)C(=O)N[C@@H](CC(C)C)C(N)=O [Oct-(SEQ ID NO: 107)-NH2] (Octanoyl-LLKKLKKL-NH2)	15.00 µg/mL
CCCCCCCC(=O)N[C@@H](CCCCN)C(=O)N[C@@H](CCCCN)C(=O)N[C@@H](CC(C)C)C(=O)N[C@@H](CC(C)C)C(=O)N[C@@H](CCCCN)C(=O)N[C@@H](CCCCN)C(=O)N[C@@H](CC(C)C)C(=O)N[C@@H](CCCCN)C(=O)N[C@@H](CCCCN)C(=O)N[C@@H](CC(C)C)C(N)=O [Oct-(SEQ ID NO: 109)-NH2] (Octanoyl-KKLLKKLKKL-NH2)	0.60 µg/mL
CCCCCCCC(=O)N[C@@H](CC(C)C)C(=O)N[C@@H](CCCCN)C(=O)N[C@@H](CCCCN)C(=O)N[C@@H](CC(C)C)C(=O)N[C@@H](CC(C)C)C(=O)N[C@@H](CCCCN)C(=O)N[C@@H](CCCCN)C(=O)N[C@@H](CC(C)C)C(=O)N[C@@H](CCCCN)C(=O)N[C@@H](CCCCN)C(=O)N[C@@H](CC(C)C)C(N)=O [Oct-(SEQ ID NO: 110)-NH2] (Octanoyl-LKKLLKKLKKL-NH2)	0.84 µg/mL
CCCCCCCC(=O)N[C@@H](C)C(=O)N[C@@H](CCCCN)C(=O)N[C@@H](CCCCN)C(=O)N[C@@H](CC(C)C)C(=O)N[C@@H](CC(C)C)C(=O)N[C@@H](CCCCN)C(=O)N[C@@H](CCCCN)C(=O)N[C@@H](CC(C)C)C(=O)N[C@@H](CCCCN)C(=O)N[C@@H](CCCCN)C(=O)N[C@@H](CC(C)C)C(N)=O [Oct-(SEQ ID NO: 111)-NH2] (Octanoyl-AKKLLKKLKKL-NH2)	1.00 µg/mL
CCCCCCCC(=O)N[C@@H](CCCCN)C(=O)N[C@@H](Cc1ccccc1)C(=O)N[C@@H](C)C(=O)N[C@@H](CCCCN)C(=O)N[C@@H](Cc1ccccc1)C(=O)N[C@@H](C)C(=O)N[C@@H](CCCCN)C(=O)N[C@@H](CCCCN)C(=O)N[C@@H](Cc1ccccc1)C(=O)N[C@@H](C)C(N)=O [Oct-(SEQ ID NO: 121)-NH2] (Octanoyl-KFAKFAKKFA-NH2)	20.00 µg/mL
CCCCCCCC(=O)N[C@@H](CCCCN)C(=O)N[C@@H](CCCCN)C(=O)N[C@@H](CC(C)C)C(=O)N[C@@H](C)C(=O)N[C@@H](CCCCN)C(=O)N[C@@H](CC(C)C)C(=O)N[C@@H](C)C(=O)N[C@@H](CCCCN)C(=O)N[C@@H](CCCCN)C(=O)N[C@@H](CC(C)C)C(=O)N[C@@H](C)C(N)=O [Oct-(SEQ ID NO: 123)-NH2] (Octanoyl-KKLAKLAKKLA-NH2)	1.70 µg/mL
CCCCCCCC(=O)N[C@@H](CC(C)C)C(=O)N[C@@H](CCCCN)C(=O)N[C@@H](CCCCN)C(=O)N[C@@H](CC(C)C)C(=O)N[C@@H](CC(C)C)C(=O)N[C@@H](CCCCN)C(=O)N[C@@H](CCCCN)C(N)=O [Oct-(SEQ ID NO: 137)-NH2] (Octanoyl-LKKLLKK-NH2)	4.80 µg/mL
CCCCCCCC(=O)N[C@@H](CC(C)C)C(=O)N[C@@H](CCCCN)C(=O)N[C@@H](CCCCN)C(=O)N[C@@H](CC(C)C)C(=O)N[C@@H](CC(C)C)C(=O)N[C@@H](CCCCN)C(=O)N[C@@H](CC(C)C)C(=O)N[C@@H](CC(C)C)C(=O)N[C@@H](CCCCN)C(N)=O [Oct-(SEQ ID NO: 138)-NH2] (Octanoyl-LKKLLKLLK-NH2)	1.00 µg/mL
CCCCCCCC(=O)N[C@H](CC(C)C)C(=O)N[C@H](CCCCN)C(=O)N[C@H](CCCCN)C(=O)N[C@H](CC(C)C)C(=O)N[C@H](CC(C)C)C(=O)N[C@H](CCCCN)C(=O)N[C@H](CCCCN)C(=O)N[C@H](CC(C)C)C(=O)N[C@H](CCCCN)C(=O)N[C@H](CCCCN)C(=O)N[C@H](CC(C)C)C(N)=O [Oct-D-(SEQ ID NO: 110)-NH2] (Octanoyl-[dL][dK][dK][dL][dL][dK][dK][dL][dK][dK][dL]-NH2)	0.97 µg/mL
Oct-D-(SEQ ID NO:110)-NH2 -melibionic acid: Oct-D-(SEQ ID NO:110)-NH2 with melibionic acid, not further explained (Octanoyl-LKKLLKKLKKL-NH2; not fully specified (some residues); also: melibionic acid, not further explained)	45.00 µg/mL
